Experimental data: US11555012B2 (Nimbus Artemis, Inc., priority 2018, dated 2023)
Where two headings read alike, the source gives them in different places.

How the values were obtained:
[1] = target: T1, ACL (Homo sapiens (Human), UniProt P53396); test: ADP-Glo Assay
Target sequence in this assay (P53396 other isoform, or with tags, fused parts or gaps isoform P53396-2): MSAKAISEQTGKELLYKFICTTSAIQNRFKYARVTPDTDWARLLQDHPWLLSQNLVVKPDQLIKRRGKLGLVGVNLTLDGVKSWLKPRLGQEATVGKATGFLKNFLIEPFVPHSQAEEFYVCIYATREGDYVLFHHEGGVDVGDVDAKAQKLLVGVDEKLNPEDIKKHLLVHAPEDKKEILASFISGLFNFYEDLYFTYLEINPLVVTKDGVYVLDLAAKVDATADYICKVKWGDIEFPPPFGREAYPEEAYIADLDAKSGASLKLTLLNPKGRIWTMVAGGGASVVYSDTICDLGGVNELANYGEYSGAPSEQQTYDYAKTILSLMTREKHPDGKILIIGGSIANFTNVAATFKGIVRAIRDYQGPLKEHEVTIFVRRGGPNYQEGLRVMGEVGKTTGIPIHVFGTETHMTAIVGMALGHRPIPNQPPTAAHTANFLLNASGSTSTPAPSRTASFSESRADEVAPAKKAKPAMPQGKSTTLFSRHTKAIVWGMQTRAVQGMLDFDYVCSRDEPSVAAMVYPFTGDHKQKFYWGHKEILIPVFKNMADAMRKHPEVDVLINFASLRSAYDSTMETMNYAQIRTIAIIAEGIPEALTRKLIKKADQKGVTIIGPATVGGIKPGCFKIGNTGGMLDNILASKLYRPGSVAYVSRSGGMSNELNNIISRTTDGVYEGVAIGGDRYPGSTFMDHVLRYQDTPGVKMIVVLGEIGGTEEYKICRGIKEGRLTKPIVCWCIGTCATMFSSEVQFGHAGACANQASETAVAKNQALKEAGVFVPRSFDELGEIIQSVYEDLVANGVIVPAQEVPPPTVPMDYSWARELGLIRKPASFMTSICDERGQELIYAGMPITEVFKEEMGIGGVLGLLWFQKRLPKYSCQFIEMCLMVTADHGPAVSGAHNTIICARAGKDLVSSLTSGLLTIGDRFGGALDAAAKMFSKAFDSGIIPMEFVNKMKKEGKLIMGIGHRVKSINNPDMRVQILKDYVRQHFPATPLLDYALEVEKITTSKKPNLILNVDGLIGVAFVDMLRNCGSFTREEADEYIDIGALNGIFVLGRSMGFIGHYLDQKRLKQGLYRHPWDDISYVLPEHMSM

[2] = target: T1, ACL; test: ACLY-MDH Coupled Assay
Target sequence in this assay (P53396 whole entry, species assumed): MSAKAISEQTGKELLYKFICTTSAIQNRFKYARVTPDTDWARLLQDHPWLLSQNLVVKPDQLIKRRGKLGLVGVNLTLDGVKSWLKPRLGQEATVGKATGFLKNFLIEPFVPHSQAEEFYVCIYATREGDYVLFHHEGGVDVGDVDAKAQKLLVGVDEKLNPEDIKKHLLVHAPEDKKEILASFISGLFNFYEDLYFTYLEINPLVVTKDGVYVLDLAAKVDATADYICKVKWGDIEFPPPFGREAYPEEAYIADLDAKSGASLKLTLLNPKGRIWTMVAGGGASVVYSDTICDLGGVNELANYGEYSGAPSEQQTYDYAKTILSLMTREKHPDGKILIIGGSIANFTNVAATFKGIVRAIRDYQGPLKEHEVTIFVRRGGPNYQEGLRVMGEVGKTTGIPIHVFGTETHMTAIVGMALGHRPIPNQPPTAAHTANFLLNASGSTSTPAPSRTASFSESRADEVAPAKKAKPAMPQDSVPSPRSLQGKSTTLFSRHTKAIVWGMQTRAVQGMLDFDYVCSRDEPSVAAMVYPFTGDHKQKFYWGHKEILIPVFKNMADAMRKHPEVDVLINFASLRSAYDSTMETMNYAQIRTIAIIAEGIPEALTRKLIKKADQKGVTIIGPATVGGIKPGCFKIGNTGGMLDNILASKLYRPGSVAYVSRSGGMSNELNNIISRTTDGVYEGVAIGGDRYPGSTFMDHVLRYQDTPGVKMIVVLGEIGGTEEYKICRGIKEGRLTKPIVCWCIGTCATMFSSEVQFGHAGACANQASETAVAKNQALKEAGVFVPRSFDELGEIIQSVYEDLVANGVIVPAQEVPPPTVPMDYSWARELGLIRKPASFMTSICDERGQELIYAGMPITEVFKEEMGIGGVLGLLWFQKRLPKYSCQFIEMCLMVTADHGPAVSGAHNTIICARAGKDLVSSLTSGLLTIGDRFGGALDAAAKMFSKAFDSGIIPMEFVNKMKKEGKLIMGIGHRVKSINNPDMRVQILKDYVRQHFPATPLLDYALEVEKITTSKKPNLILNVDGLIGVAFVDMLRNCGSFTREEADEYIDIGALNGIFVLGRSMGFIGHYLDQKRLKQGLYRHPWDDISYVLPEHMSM
Method: Compounds of the present invention were evaluated in an ACLY Coupled Assay.
The assay protocol for the Coupled Assay (below) was followed:
b) Add 1 μL cpds to 96 assay plate, Test cpd conc: 100/30/10 μM top dose, 3 folds dilution, 10+0+control (control: buffer without ACL+DMSO) points, 1000 rpm for 1 min, incubation at 25° C. for 60 min

[3] = system: HepG2 cells; conditions: Homo sapiens, HepG2, read-out: ACLY HepG2 14C-Pyruvate Assay serum free IC50 FA (IC50) [μM]
Method: ACLY HepG2 ^14C-Pyruvate Incorporation Serum-Free Assay (IC50 Fatty
The protocol of the assay (below) was followed:
(§1) After 48 hours, change medium with fresh growth medium.
(§2) After 18 hours, replaced medium using 0.5 mL fresh medium (5.5 mM Glucose, without FBS, 1% PS, without Pyruvate) containing Compounds or 0.5% DMSO, incubated at 37° C., 5% CO2 for 1 hour.
(§3) Add 3 μci of [14C]-pyruvate per well to the cell samples were incubated at 37° C., 5% CO2 for 5 hours.
Medium was removed and placed into a 15 mL centrifuge tube. Add 0.5 mL of 0.1M NaOH to each well and then transfer the cell lysates into the corresponding 15 mL centrifuge tubes. 1.0 mL of EtOH and 0.17 mL 50% KOH were added to 15 mL tubes containing medium and cell suspensions, then shaking tube gently. […] Saponification 15 mL tubes containing medium and cell suspensions were incubated at 90° C. for 1 hour, then cooled to room temperature. […] Cholesterol Extraction 5 mL of petroleum ether was added per tube to extract Cholesterol, shaken vigorously, centrifuged at 1000 rpm for 5 min, and ˜5 mL of the petroleum ether layer was transferred to a new glass tube (18*180 mm). […] Acidification The samples in 15 mL tube were acidified directly with 1 mL concentrated HCl, make sure pH was below 1. […] Fatty Acids Extraction 5 mL of petroleum ether was added per tube, shaken vigorously, centrifuged at 1000 rpm for 5 min, 5 mL of the petroleum ether layer was transferred to the corresponding glass tube. […] Repeat the Step 8 10. Count The petroleum ether extracts were pooled and evaporated to dryness overnight. The residue from the petroleum ether fractions were resuspended in 500 μL of chloroform-hexane (1:1) containing 420 μg of linoleic acid as a carrier. Add 200 μL of resuspending (chloroform-hexane (1:1) containing 168 μg of linoleic acid) to 2 mL Ultima Gold™, after 30 min, count on a scintillation counter.

[4] = system: HepG2 cells; conditions: Homo sapiens, HepG2, read-out: ACLY HepG2 14C-Pyruvate Assay serum free IC50 Cholesterol (IC50) [μM]
Method: ACLY HepG2 ^14C-Pyruvate Incorporation Serum-Free Assay (IC50 Cholesterol and Fatty Acid Synthesis)
Compounds of the present invention were evaluated in a HepG2 ^14C-pyruvate incorporation assay. The protocol below was followed:
as §1, §2, §3
Medium was removed and placed into a 15 mL centrifuge tube. Add 0.5 mL of 0.1M NaOH to each well and then transfer the cell lysates into the corresponding 15 mL centrifuge tubes. 1.0 mL of EtOH and 0.17 mL 50% KOH were added to 15 mL tubes containing medium and cell suspensions, then shaking tube gently. […] Saponification 15 mL tubes containing medium and cell suspensions were incubated at 90° C. for 1 hour, then cooled to room temperature. […] Cholesterol Extraction 5 mL of petroleum ether was added per tube to extract Cholesterol, shaken vigorously, centrifuged at 1000 rpm for 5 min, and ˜5 mL of the petroleum ether layer was transferred to a new glass tube (18*180 mm). […] Acidification The samples in 15 mL tube were acidified directly with 1 mL concentrated HCl, make sure pH was below 1. […] Fatty Acids Extraction 5 mL of petroleum ether was added per tube, shaken vigorously, centrifuged at 1000 rpm for 5 min, 5 mL of the petroleum ether layer was transferred to the corresponding glass tube. […] Count The petroleum ether extracts were pooled and evaporated to dryness overnight. The residue from the petroleum ether fractions were resuspended in 500 μL of chloroform-hexane (1:1) containing 420 μg of linoleic acid as a carrier. Add 200 μL of resuspending (chloroform-hexane (1:1) containing 168 μg of linoleic acid) to 2 mL Ultima Gold™, after 30 min, count on a scintillation counter.

[5] = read-out: ACL-ADP-Glo (IC50), 3 nM ACL, 15 μM ATP, 3 μM CoA, 300 μM Citrate
[6] = read-out: ACL-MDH Coupled Assay (IC50), 8 nM ACL, 60 μM CoA Na2, 85 μM Citrate, 250 μM ATP, 250 μM NADH

SMILES | IC50 [1] | IC50 [2] | also measured
COC(=O)c1cc(Cl)c(O)c(S(=O)(=O)Nc2cc(-c3cc4ccccc4s3)c(F)cc2F)c1 [I-128, Methyl 3-[[5-(1-benzothiophen-2-yl)-2,4-difluorophenyl]sulfamoyl]-5-chloro-4-hydroxybenzoate] | – | – | IC50 [1, 5]: < 50 nM; IC50 [2, 6]: < 50 nM; IC50 [3]: > 10 µM; IC50 [4]: 5 to 20 µM
CN(C)C(=O)c1cc(Cl)c(O)c(S(=O)(=O)Nc2cc(-c3ccccc3)c(F)cc2F)c1 [I-83, 3-chloro-5-[(2,4-difluoro-5-phenylphenyl)sulfamoyl]-4-hydroxy-N,N-dimethylbenzamide] | – | – | IC50 [3]: > 10 µM; IC50 [4]: 1 to 5 µM
COc1ccc(-c2ccccc2)cc1NS(=O)(=O)c1ccc(-c2nn[nH]n2)cc1 [I-407, N-(2-methoxy-5-phenylphenyl)-4-(2H-1,2,3,4-tetrazol-5-yl)benzene-1-sulfonamide] | > 20000 nM | > 30000 nM | –
CNC(=O)c1cc(Cl)c(O)c(S(=O)(=O)Nc2cc(-c3ccccc3)ccc2OC)c1 [I-66, 3-chloro-4-hydroxy-5-[(2-methoxy-5-phenylphenyl)sulfamoyl]-N-methylbenzamide] | 50 to 500 nM | 500 to 30000 nM | –
O=C(O)c1ccc(-c2ccccc2)cc1NS(=O)(=O)c1c(Cl)nc2sccn12 [I-332] | 500 to 20000 nM | 500 to 30000 nM | –
O=C(O)COc1ccc(-c2ccccc2)cc1NS(=O)(=O)c1cc(C(F)(F)F)cc(Cl)c1O [I-264, 2-([3-[3-chloro-2-hydroxy-5-(trifluoromethyl)benzenesulfonamido]-[1,1-biphenyl]-4-yl]oxy)acetic Acid] | 500 to 20000 nM | 500 to 30000 nM | –
O=C(O)c1ccc(-c2ccccc2)cc1NS(=O)(=O)c1cccc2nonc12 [I-339] | 500 to 20000 nM | 500 to 30000 nM | –
O=c1[nH]cc(C(F)(F)F)cc1S(=O)(=O)Nc1cc(-c2ccccc2)ccc1F [I-355, N-[4-fluoro-[1,1-biphenyl]-3-yl]-2-oxo-5-(trifluoromethyl)-1,2-dihydropyridine-3-sulfonamide] | 50 to 500 nM | 500 to 30000 nM | –
O=S(=O)(Nc1cc(-c2ccccc2)ccc1OC(F)(F)F)c1cc(Cl)cc(Cl)c1O [I-509, 3,5-dichloro-2-hydroxy-N-(4-(trifluoromethoxy)-[1,1′-biphenyl]-3-yl)benzenesulfonamide] | 50 to 500 nM | 50 to 500 nM | –
CC(=O)N1CCc2cc(Br)c(S(=O)(=O)Nc3cc(-c4ccccc4)ccc3C(=O)O)cc21 [I-338] | 500 to 20000 nM | 500 to 30000 nM | –
O=C(O)COc1c(Br)cc(C(=O)N2CCC2)cc1S(=O)(=O)Nc1cc(-c2ccccc2)ccc1F [I-192, 2-(4-(azetidine-1-carbonyl)-2-bromo-6-(N-(4-fluoro-[1,1′-biphenyl]-3-yl)sulfamoyl)phenoxy)acetic Acid] | 500 to 20000 nM | 500 to 30000 nM | –
CN(C(=O)c1cc(Cl)cc(Cl)c1)c1cc(-c2ccccc2)ccc1C(=O)O [I-347, 3-(3,5-dichloro-N-methylbenzamido)-[1,1′-biphenyl]-4-carboxylic Acid] | 500 to 20000 nM | 500 to 30000 nM | –
Cc1sc2ccccc2c1S(=O)(=O)Nc1cc(-c2ccccc2)ccc1C(=O)O [I-333] | 500 to 20000 nM | 500 to 30000 nM | –
C[C@@]1(O)CCN(C(=O)c2cc(Cl)c(O)c(S(=O)(=O)Nc3cc(-c4ccccc4)c(F)cc3F)c2)C1 [I-148, (R)-3-chloro-N-(4,6-difluoro-[1,1′-biphenyl]-3-yl)-2-hydroxy-5-(3-hydroxy-3-methylpyrrolidine-1-carbonyl)benzenesulfonamide] | – | – | IC50 [1, 5]: < 50 nM; IC50 [2, 6]: < 50 nM
O=C(c1cc(Cl)c(O)c(S(=O)(=O)Nc2cc(-c3ccccc3)c(F)cc2F)c1)N1CC[C@H](F)C1 [I-118, (S)-3-chloro-N-(4,6-difluoro-[1,1′-biphenyl]-3-yl)-5-(3-fluoropyrrolidin-1-carbonyl)-2-hydroxybenzenesulfonamide] | – | 50 to 500 nM | IC50 [1, 5]: < 50 nM
O=C(c1cc(Cl)c(O)c(S(=O)(=O)Nc2cc(-c3ccccc3)c(F)cc2F)c1)N1CC[C@H](O)C1 [I-105, (S)-3-chloro-N-(4,6-difluoro-[1,1′-biphenyl]-3-yl)-2-hydroxy-5-(3-hydroxypyrrolidine-1-carbonyl)benzenesulfonamide] | – | – | IC50 [1, 5]: < 50 nM; IC50 [2, 6]: < 50 nM
COC(=O)c1cc(Cl)c(O)c(C(=O)Nc2cc(-c3ccccc3)c(F)cc2F)c1 [I-146, methyl 3-chloro-5-((4,6-difluoro-[1,1′-biphenyl]-3-yl)carbamoyl)-4-hydroxybenzoate] | 500 to 20000 nM | 500 to 30000 nM | –
O=C(Nc1cc(-c2ccccc2)c(F)cc1F)c1cc(Br)cc(Cl)c1O [I-139, 5-bromo-3-chloro-N-(4,6-difluoro-[1,1′-biphenyl]-3-yl)-2-hydroxybenzamide] | 500 to 20000 nM | 500 to 30000 nM | –
N#Cc1cc(Cl)cc(S(=O)(=O)Nc2cc(-c3ccccc3)ccc2C(=O)O)c1 [I-226, 3-((3-chloro-5-cyanophenyl)sulfonamido)-[1,1′-biphenyl]-4-carboxylic acid] | 500 to 20000 nM | 500 to 30000 nM | –

More lines, main results first:

IC50 [1] | IC50 [2] | SMILES | also measured
500 to 20000 nM | 500 to 30000 nM | O=C(c1cc(Cl)c(O)c(S(=O)(=O)Nc2cc(C3CC3)c(F)cc2F)c1)N1CCCC1 [I-193, 3-chloro-N-(5-cyclopropyl-2,4-difluorophenyl)-2-hydroxy-5-(pyrrolidine-1-carbonyl)benzene-1-sulfonamide] | –
500 to 20000 nM | 500 to 30000 nM | CCC(=O)Oc1c(Cl)cc(Cl)cc1S(=O)(=O)Nc1cc(-c2ccccc2)ccc1F [I-50, 2,4-dichloro-6-(N-(4-fluoro-[1,1′-biphenyl]-3-yl)sulfamoyl)phenyl propionate] | –
500 to 20000 nM | 500 to 30000 nM | O=C(O)c1ccc(-c2ccccc2)cc1NS(=O)(=O)C1CCC1 [I-329] | –
– | 50 to 500 nM | O=C(c1cc(Cl)c(O)c(S(=O)(=O)Nc2cc(-c3ccccc3)c(F)cc2F)c1)N1CC[C@@H](F)C1 [I-119, (R)-3-chloro-N-(4,6-difluoro-[1,1′-biphenyl]-3-yl)-5-(3-fluoropyrrolidine-1-carbonyl)-2-hydroxybenzenesulfonamide] | IC50 [1, 5]: < 50 nM
500 to 20000 nM | 500 to 30000 nM | N#Cc1cc(Cl)cc(S(=O)(=O)Nc2cc(-c3ccccc3)ccc2F)c1O [I-29, 5-chloro-3-cyano-N-(2-fluoro-5-phenylphenyl)-2-hydroxybenzene-1-sulfonamide] | –
50 to 500 nM | 50 to 500 nM | O=C(c1cc(Cl)c(O)c(S(=O)(=O)Nc2cc(-c3ccccn3)ccc2F)c1)N1CCC1 [I-206, 5-(azetidine-1-carbonyl)-3-chloro-N-[2-fluoro-5-(pyridin-2-yl)phenyl]-2-hydroxybenzene-1-sulfonamide] | –
500 to 20000 nM | 500 to 30000 nM | COc1ccc(-c2ccccc2)cc1NS(=O)(=O)c1cc(C(=O)NCCN)cc(Cl)c1O [I-64, N-(2-aminoethyl)-3-chloro-4-hydroxy-5-[(2-methoxy-5-phenylphenyl)sulfamoyl]benzamide] | –
50 to 500 nM | 500 to 30000 nM | O=C(c1cc(Cl)c(O)c(S(=O)(=O)Nc2cc(-c3ccccc3)ncc2F)c1)N1CCC1 [I-222, 5-(azetidine-1-carbonyl)-3-chloro-N-(5-fluoro-2-phenylpyridin-4-yl)-2-hydroxybenzene-1-sulfonamide] | –
50 to 500 nM | 500 to 30000 nM | COc1ccc(-c2cccnc2)cc1NS(=O)(=O)c1cc(C(=O)N2CCC2)cc(Cl)c1O [I-144, 5-(azetidine-1-carbonyl)-3-chloro-2-hydroxy-N-[2-methoxy-5-(pyridin-3-yl)phenyl]benzene-1-sulfonamide] | –
500 to 20000 nM | 500 to 30000 nM | O=C(O)c1sc(-c2ccc(Cl)cc2)cc1NS(=O)(=O)c1cc(Cl)cc(Cl)c1 [I-322, 5-(4-chlorophenyl)-3-((3,5-dichlorophenyl)sulfonamido)thiophene-2-carboxylic acid] | –
500 to 20000 nM | 500 to 30000 nM | CC(C)(C)OC(=O)NC1CN(C(=O)c2cc(Cl)c(O)c(S(=O)(=O)Nc3cc(-c4ccccc4)c(F)cc3F)c2)C1 [I-201, tert-butyl N-[1-[3-chloro-5-([4,6-difluoro-[1,1-biphenyl]-3-yl]sulfamoyl)-4-hydroxybenzoyl]azetidin-3-yl]carbamate] | –
– | 50 to 500 nM | O=C(c1cc(Cl)c(O)c(S(=O)(=O)Nc2cc(-c3ccccc3)c(F)cc2F)c1)N1CC[C@@H](O)C1 [I-106, (R)-3-chloro-N-(4,6-difluoro-[1,1′-biphenyl]-3-yl)-2-hydroxy-5-(3-hydroxypyrrolidine-1-carbonyl)benzenesulfonamide] | IC50 [1, 5]: < 50 nM
500 to 20000 nM | 500 to 30000 nM | COC(=O)Cc1cc(Cl)c(O)c(S(=O)(=O)Nc2cc(-c3ccccc3)ccc2OC)c1 [I-94, Methyl 2-[3-chloro-4-hydroxy-5-[(2-methoxy-5-phenylphenyl)sulfamoyl]phenyl]acetate] | –
– | 50 to 500 nM | O=C(c1cc(Cl)c(O)c(S(=O)(=O)Nc2cc(-c3ccccc3)c(F)cc2F)c1)N1CC(O)C1 [I-129, 3-chloro-N-(4,6-difluoro-[1,1′-biphenyl]-3-yl)-2-hydroxy-5-(3-hydroxyazetidine-1-carbonyl)benzenesulfonamide] | IC50 [1, 5]: < 50 nM
500 to 20000 nM | 50 to 500 nM | O=S(=O)(Nc1cc(-c2ccccc2)ccc1O)c1cc(Cl)cc(Cl)c1O [I-28, 3,5-dichloro-2-hydroxy-N-(2-hydroxy-5-phenylphenyl) benzene-1-sulfonamide] | –
500 to 20000 nM | 500 to 30000 nM | O=C(O)c1ncc(-c2ccccc2)cc1NS(=O)(=O)c1cc(Cl)cc(Cl)c1 [I-243, 3-((3,5-dichlorophenyl)sulfonamido)-5-phenylpicolinic Acid] | –
